Results from ChEMBL document CHEMBL5154652, “Design, synthesis and anti-hepatocellular carcinoma activity of 3-arylisoquinoline alkaloids” (Eur J Med Chem, 2022).
The source made the active and inactive calls. The rule behind the calls is not given here.

What was measured:
HGC-27 = test: Antiproliferative activity against human HGC-27 cells after 72 hrs by MTT assay; type: functional, cell-based; details: HGC-27, 72 h
SGC-7901 = test: Antiproliferative activity against human SGC-7901 cells after 72 hrs by MTT assay; type: functional, cell-based; details: SGC-7901, 72 h
U-251 = test: Antiproliferative activity against human U-251 cells after 72 hrs by MTT assay; type: functional, cell-based; details: U-251, 72 h
BGC-823 = test: Antiproliferative activity against human BGC-823 cells after 72 hrs by MTT assay; type: functional, cell-based; details: BGC-823, 72 h
L02 = test: Antiproliferative activity against human L02 cells after 72 hrs by MTT assay; type: functional, cell-based; details: L02, 72 h
HepG2 = test: Antiproliferative activity against human HepG2 cells after 72 hrs by MTT assay; type: functional, cell-based; details: HepG2, 72 h
RKO = test: Antiproliferative activity against human RKO cells after 72 hrs by MTT assay; type: functional, cell-based
HT-29 = test: Antiproliferative activity against human HT-29 cells after 72 hrs by MTT assay; type: functional, cell-based; details: HT-29, 72 h
MDA-MB-231 = test: Antiproliferative activity against human MDA-MB-231 cells after 72 hrs by MTT assay; type: functional, cell-based; details: MDA-MB-231, 72 h
HCT-116 = test: Antiproliferative activity against human HCT-116 cells after 72 hrs by MTT assay; type: functional, cell-based; details: HCT-116, 72 h
A549 = test: Antiproliferative activity against human A549 cells after 72 hrs by MTT assay; type: functional, cell-based; details: A549, 72 h
Huh-7 = test: Antiproliferative activity against human Huh-7 cells after 72 hrs by MTT assay; type: functional, cell-based; details: Huh-7, 72 h
MCF7 = test: Antiproliferative activity against human MCF7 cells after 72 hrs by MTT assay; type: functional, cell-based; details: MCF7, 72 h
SW480 = test: Antiproliferative activity against human SW480 cells after 72 hrs by MTT assay; type: functional, cell-based; details: SW480, 72 h
HCCLM9 = test: Antiproliferative activity against human HCCLM9 cells after 72 hrs by MTT assay; type: functional, cell-based; details: HCCLM9, 72 h
HL-60 = test: Antiproliferative activity against human HL-60 cells after 72 hrs by MTT assay; type: functional, cell-based; details: HL-60, 72 h
SK-HEP1 = test: Antiproliferative activity against human SK-HEP1 cells after 72 hrs by MTT assay; type: functional, cell-based; details: SK-HEP1, 72 h
[1] = target: DNA topoisomerase 1 (Homo sapiens) (UniProt P11387); test: Inhibition of DNA topoisomerase 1 (unknown origin) at 25 to 50 uM measured by agar gel electrophoresis relative to control; details: dose 25-50 µM
DNA topoisomerase 1 (Homo sapiens), sequence (P11387 whole entry): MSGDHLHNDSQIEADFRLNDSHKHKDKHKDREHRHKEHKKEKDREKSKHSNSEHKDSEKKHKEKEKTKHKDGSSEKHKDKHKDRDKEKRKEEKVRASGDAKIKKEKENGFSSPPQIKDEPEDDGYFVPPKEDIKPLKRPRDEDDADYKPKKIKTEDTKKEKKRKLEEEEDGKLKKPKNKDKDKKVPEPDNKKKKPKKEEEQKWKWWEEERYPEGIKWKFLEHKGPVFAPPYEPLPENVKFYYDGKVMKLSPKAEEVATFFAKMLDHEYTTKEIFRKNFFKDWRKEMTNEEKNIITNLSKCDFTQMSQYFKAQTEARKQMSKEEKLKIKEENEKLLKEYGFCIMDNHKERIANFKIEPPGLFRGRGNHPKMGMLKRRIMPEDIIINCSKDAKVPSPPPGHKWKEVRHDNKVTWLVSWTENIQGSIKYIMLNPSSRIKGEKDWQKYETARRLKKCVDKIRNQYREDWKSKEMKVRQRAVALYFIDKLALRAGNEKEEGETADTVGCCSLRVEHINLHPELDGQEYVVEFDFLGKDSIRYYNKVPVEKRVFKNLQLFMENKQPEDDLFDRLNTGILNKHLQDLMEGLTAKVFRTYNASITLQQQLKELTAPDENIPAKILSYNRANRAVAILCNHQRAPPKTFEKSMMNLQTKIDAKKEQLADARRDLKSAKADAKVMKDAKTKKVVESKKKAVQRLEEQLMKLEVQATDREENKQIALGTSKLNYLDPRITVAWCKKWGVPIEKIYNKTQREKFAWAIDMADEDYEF

IC50 (SGC-7901) [µM] | IC50 (U-251) [µM] | IC50 (BGC-823) [µM] | IC50 (HepG2) [µM] | IC50 (HT-29) [µM] | IC50 (MDA-MB-231) [µM] | IC50 (HCT-116) [µM] | IC50 (A549) [µM] | IC50 (Huh-7) [µM] | IC50 (MCF7) [µM] | IC50 (SW480) [µM] | IC50 (HCCLM9) [µM] | IC50 (HL-60) [µM] | IC50 (SK-HEP1) [µM] | inhibition [1] | Compound | IC50 (HGC-27) [µM] | IC50 (L02) [µM] | IC50 (RKO) [µM]
81.9 | 65.1 | 31.6 | > 150 | 146 | 103 | > 150 | > 150 | 59.5 | 94.6 | 40.6 | 32.4 | > 150 |  |  | COc1cc(CCN(C)C)c(-c2cc3ccc4c(c3cn2)OCO4)cc1OC | > 150 | > 150 | > 150
 |  |  |  | 46.7 |  | 46.7 |  | 42.3 |  | 36.9 | 32.7 |  |  |  | OCc1cc2c(cc1-c1cc3ccc4c(c3cn1)OCO4)OCO2 |  |  | 87.4
> 150 | > 150 | > 150 | > 150 | > 150 | 128 | > 150 | > 150 | 77 | 32.4 | 105 | > 150 | > 150 |  |  | COCCc1cc(OC)c(OC)cc1-c1cc2ccc3c(c2cn1)OCO3 | 120 | > 150 | > 150
 |  |  | 46.7 | 46.7 |  |  |  | 25.5 |  | 74.7 | 12.5 |  |  |  | CN(C)Cc1c(-c2cc3c4c(ccc3cn2)OCO4)ccc2c1OCO2 |  | > 150 | 47
 |  |  | > 150 | > 150 |  | > 150 |  | 40.8 |  | > 150 | > 150 |  |  |  | OCc1c(-c2cc3c4c(ccc3cn2)OCO4)ccc2c1OCO2 |  | > 150 | > 150
45.1 | 28.5 | 33.6 | 72.5 | > 150 | 30.2 | > 150 | 65.2 | 17.6 | 61.7 | 36.3 | 21 | 130 | 32.4 |  | CN(C)CCc1cc2c(cc1-c1cc3ccc4c(c3cn1)OCO4)OCO2 | 78.5 |  | > 150
20 | 10.8 | 26.7 | 23.2 | 27.5 | 19.6 | 57.6 | 18.7 | 13.7 | 54.6 | 15.2 | 10.4 |  | 16 |  | CNCCCCc1cc2c(cc1-c1cc3ccc4c(c3cn1)OCO4)OCO2 | 55.3 |  | 81.7
48.2 | 24.6 |  | 20.8 | 36 | 12.8 | 67.2 | 17.4 | 11.2 |  | 8.54 | 8.83 | 115 | 17.2 | Active | CN(C)Cc1cc2c(cc1-c1cc3ccc4c(c3cn1)OCO4)OCO2 | 19.1 | > 150 | 28.7
39 | 15 | 83.5 | 55.4 | 41.6 | 26.6 | 97 | 81.9 | 37.8 | 53.6 | 63.2 | 38.5 |  | 35.6 |  | CN(C)CCCCc1cc2c(cc1-c1cc3ccc4c(c3cn1)OCO4)OCO2 | 38.9 |  | 93.1
> 150 | 53.4 | 79.4 | 74 | > 150 | 60.9 | 86 | 96 | 63.9 | 130 | > 150 | > 150 | > 150 | 145 |  | CN(C=O)CCc1cc2c(cc1-c1cc3ccc4c(c3cn1)OCO4)OCO2 | 69 | > 150 | > 150
41.6 | 27.7 | 44.9 | 35.7 | 41.1 | 39.5 | 80.9 | 52.1 | 19 | 42.8 | 29.4 | 20.4 | > 150 | 22.2 |  | CNCCCc1cc2c(cc1-c1cc3ccc4c(c3cn1)OCO4)OCO2 | 73.2 | 90.4 | 106
 |  |  | 26.7 | 44.5 |  | 26.7 |  | 20.2 |  | 42.7 | 7.25 |  |  |  | CNCc1c(-c2cc3c4c(ccc3cn2)OCO4)ccc2c1OCO2 |  | 74.6 | 26.7
55.5 | 24.5 | 51.8 | 80.4 | 96.6 | 35.6 | > 150 | 65.7 | 20 | 60.4 | 40.6 | 15.6 | 93.6 | 38.2 |  | CN(C)CCCc1cc2c(cc1-c1cc3ccc4c(c3cn1)OCO4)OCO2 | > 150 | > 150 | 126
28.8 | 51.8 | 49.9 | 27.3 | 96.6 | 36.7 | > 150 | > 150 | 19.2 | 69.7 | 28.6 | 25.1 | > 150 | 103 |  | CCOC(=O)N(C)CCc1cc2c(cc1-c1cc3ccc4c(c3cn1)OCO4)OCO2 | 99.8 | 149 | 91.6

Compound | IC50 (SGC-7901) [µM] | IC50 (U-251) [µM] | IC50 (BGC-823) [µM] | IC50 (HepG2) [µM] | IC50 (HT-29) [µM] | IC50 (MDA-MB-231) [µM] | IC50 (HCT-116) [µM] | IC50 (A549) [µM] | IC50 (Huh-7) [µM] | IC50 (MCF7) [µM] | IC50 (SW480) [µM] | IC50 (HCCLM9) [µM] | IC50 (HL-60) [µM] | IC50 (SK-HEP1) [µM] | inhibition [1] | IC50 (HGC-27) [µM] | IC50 (L02) [µM] | IC50 (RKO) [µM]
CNCCc1cc(OC)c(OC)cc1-c1cc2ccc3c(c2cn1)OCO3 | > 150 | 43.3 | 15.8 |  | 122 | 68.7 | > 150 |  | 42.9 | 52.8 | 21.8 | 20.2 | > 150 | 69.9 |  | 93.9 | > 150 | > 150
CNCCc1cc2c(cc1-c1cc3ccc4c(c3cn1)OCO4)OCO2 |  | 19.1 | 25.9 | 45 | 23 | 19.3 | > 150 |  | 15.5 | 49.9 | 25.4 | 10 | 113 | 28.2 |  | 20.9 | > 150 | 63.5
